These results are taken from US7718653B2, “Pyrimidine derivatives for inhibiting Eph receptors” (AstraZeneca AB, priority 2007, dated 2010).

Molecules are shown by their SMILES.

For orientation: IC50 means the concentration that gives 50% inhibition.

The target of the test is T1, EphB4 (Homo sapiens, UniProt P54760).
T1 construct: to generate full-length EphB4 containing a Myc-His tag at the C-terminus; expressed in transfected cells; EphB4-CHO)
T1 sequence (P54760 16-987): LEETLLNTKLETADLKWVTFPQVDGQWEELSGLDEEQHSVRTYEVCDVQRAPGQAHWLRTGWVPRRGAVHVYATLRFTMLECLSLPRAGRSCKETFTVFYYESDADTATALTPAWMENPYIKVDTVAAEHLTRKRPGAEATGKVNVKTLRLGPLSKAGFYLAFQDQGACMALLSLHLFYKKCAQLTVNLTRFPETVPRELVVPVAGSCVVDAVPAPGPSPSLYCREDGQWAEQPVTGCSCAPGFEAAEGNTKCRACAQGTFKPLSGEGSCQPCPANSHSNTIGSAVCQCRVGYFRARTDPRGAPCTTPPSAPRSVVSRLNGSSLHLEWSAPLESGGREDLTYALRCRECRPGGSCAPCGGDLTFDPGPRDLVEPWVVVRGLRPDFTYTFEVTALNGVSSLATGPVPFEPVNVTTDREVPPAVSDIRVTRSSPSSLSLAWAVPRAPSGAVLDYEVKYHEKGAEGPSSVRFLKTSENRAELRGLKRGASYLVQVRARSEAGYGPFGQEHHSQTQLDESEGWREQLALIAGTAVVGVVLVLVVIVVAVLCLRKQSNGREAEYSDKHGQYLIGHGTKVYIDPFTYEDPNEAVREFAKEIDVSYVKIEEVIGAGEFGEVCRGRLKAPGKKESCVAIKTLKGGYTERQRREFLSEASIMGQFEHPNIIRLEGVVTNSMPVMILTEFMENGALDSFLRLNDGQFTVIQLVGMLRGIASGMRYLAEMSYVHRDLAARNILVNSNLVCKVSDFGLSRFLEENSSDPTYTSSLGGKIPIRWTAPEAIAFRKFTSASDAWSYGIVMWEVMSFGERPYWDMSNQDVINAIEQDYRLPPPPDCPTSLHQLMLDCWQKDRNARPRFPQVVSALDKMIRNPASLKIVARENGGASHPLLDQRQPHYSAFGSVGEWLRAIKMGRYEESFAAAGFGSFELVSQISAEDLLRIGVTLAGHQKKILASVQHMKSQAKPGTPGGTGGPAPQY
Kind of test: In vitro EphB4 cell assay (EphB4 phosphorylation in EphB4-CHO cells, sandwich ELISA). Format: cell-based. The settings on record: stimulated with clustered ephrin-B2, read-out: IC50 in assay B. How it is done:
B) In vitro EphB4 Cell Assay
The assay identifies inhibitors of cellular EphB4 by measuring a decrease in phosphorylation of EphB4 following treatment of cells with compound. The endpoint assay used a sandwich ELISA to detect EphB4 phosphorylation status. Briefly, Myc-tagged EphB4 from treated cell lysate was captured on the ELISA plate via an anti-c-Myc antibody. The phosphorylation status of captured EphB4 was then measured using a generic phosphotyrosine antibody conjugated to HRP via a colourimetric output catalysed by HRP, with level of EphB4 phosphorylation directly proportional to the colour intensity. Absorbance was measured spectrophotometrically at 450 nm.
Full length human EphB4 (Swiss-Prot Acc. No. P54760) was cloned using standard techniques from cDNA prepared from HUVEC using RT-PCR. The cDNA fragment was then sub-cloned into a pcDNA3.1 expression vector containing a Myc-His epitope tag to generate full-length EphB4 containing a Myc-His tag at the C-terminus (Invitrogen Ltd. Paisley, UK). CHO-K^1 cells (LGC Promochem, Teddington, Middlesex, UK, Catalogue No. CCL-61) were maintained in HAM's F12 medium (Sigma-Aldrich Company Ltd, Gillingham, Dorset SP8 4XT, Catalogue No. N4888) containing 10% heat-inactivated foetal calf serum (PAA lab GmbH, Pasching, Austria Catalogue No. PAA-A15-043) and 1% glutamax-1 (Invitrogen Ltd., Catalogue No. 35050-038) at 37° C. with 5% CO2. […]
For orientation: An ELISA detects its analyte on a solid surface through an enzyme-linked reagent.

In the case of `c1cc(Nc2ccnc(Nc3cc(N4CCOCC4)nc(N4CCOCC4)c3)n2)c2cn[nH]c2c1` [Example 3, N2-(2,6-dimorpholinopyridin-4-yl)-N4-(1H-indazol-4-yl)pyrimidine-2,4-diamine], the 50% inhibitory concentration (IC50) was 26 nM.
